What is called IC50 is the concentration needed to halve the response being measured. A high value points to weaker potency in that assay.

This note sets out measurements from patent US20240182460A1, “ALLOSTERIC CHROMENONE INHIBITORS OF PHOSPHOINOSITIDE 3-KINASE (PI3K) FOR THE TREATMENT OF DISEASE” (PETRA PHARMA CORPORATION, priority 2022, published 2024).

Bounds are passed on as bounds.

The target of the experiment is PI3Kα E545K (Homo sapiens, UniProt P42336, E545K). The experiment is described as follows: PI3Kα E545K mutant in vitro cell based assay, MDA-MB-361 cells. On the set-up: MDA-MB-361 (ATCC-HTB-27) cell line (PI3Kα E545K); host or cells: MDA-MB-361. To be noted: MDA-MB-361 cell line, 0% FBS, no insulin, 3 hours treatment. The text has this: PI3K-Alpha Kinase (PI3Kα) Activity: Wild-Type PI3Kα, H1047R Mutant PI3Kα, and E545K Mutant PI3Kα In Vitro Cell Based Assays and Determination of IC50 Values for Inhibitors
The MDA-MB-453 (ATCC-HTB-131) cell line (PI3Kα H1047R) and MCF-7 (ATCC-HTB-22) cell line (PI3Kα E545K), MDA-MB-361 (ATCC-HTB-27) cell line (PI3Kα E545K), and SKBR3 (ATCC-HTB-30) cell line (wild type PI3Kα) were obtained from the American Type Culture Collection (Manassas, VA). MDA-MB-453 cells were maintained in Dulbecco's Modified Eagle Media (DMEM, Gibco 12430) supplemented with 10% Fetal Bovine Serum, heat inactivated (FBS HI, Gibco 10082), 1× non-essential amino acids (NEAA, Gibco 11140), 1 mM sodium pyruvate (Gibco 11360) and 1× Anti-Anti (Gibco 15240). MCF-7 cells were maintained in Minimum Essential Media (MEM) (Gibco 11095) supplemented with 10% Fetal Bovine Serum, heat inactivated (FBS HI, Gibco 10082), 1× non-essential amino acids (NEAA, Gibco 11140), 1 mM sodium pyruvate (Gibco 11360), 1× Anti-Anti (Gibco 15240) and 10 μg/mL human insulin (Sigma I 9278). MDA-MB-361 cells were maintained in Dulbecco's Modified Eagle Media (DMEM, Gibco 12430) supplemented with 20% Fetal Bovine Serum, heat inactivated (FBS HI, Gibco 10082), 1× non-essential amino acids (NEAA, Gibco 11140), 1 mM sodium pyruvate (Gibco 11360) and 1× Anti-Anti (Gibco 15240). SKBR3 cells were maintained in McCoy's 5A (Gibco 16600) supplemented with 10% Fetal Bovine Serum, heat inactivated (FBS HI, Gibco 10082), and 1× Anti-Anti (Gibco 15240). Cultures were maintained in a humidified incubator at 37° C. under 5% CO2/95% air.
For compound testing in 0% FBS, MDA-MB-453, MCF-7 and SKBR3 cells were seeded at a density of 1.5×10^4, 1.0×10^4, and 1.0×10^4 cells, respectively, per well in white 384-well plates in 20 μl of Minimum Essential Media (MEM) assay media with 1×NEAA, 1 mM sodium pyruvate, and 1 μg/mL human insulin (Sigma 19278) (Assay Medium); while MDA-MB-361 cells were seeded at a density of 1.5×10^4 per well in white 384-well plates in 20 μl Assay Medium without insulin. After plating, cells were allowed to attach overnight. Compounds dissolved in 10 mM stock solutions in DMSO were serially diluted 1:3 in DMSO to generate a 10-point dilution series and plated using an acoustic liquid handler system (Echo 550 Series Liquid Handler, Labcyte). A 5× intermediate compound dilution plate in MEM with 1×NEAA and 1 mM sodium pyruvate (150 μM starting compound concentration in 1.5% DMSO) was then prepared. Five μl of the intermediate serially diluted compounds were added to the cell plate to final concentrations ranging from […] in 0.3% DMSO. 0.3% DMSO alone was used to establish the maximum (MAX) signal and GDC-0032 at a final concentration of 1 μM was used as a reference compound for the minimum (MIN) signal. After 3 hours treatment, the medium was removed, and the cells were lysed in 10 μL of 1× SureFire Lysis buffer with shaking for 10 minutes at room temperature. The Acceptor Mix (Reaction Buffer 1+Reaction Buffer 2+Activation Buffer+SureFire Ultra Acceptor Beads) was prepared by diluting Activation buffer 25-fold in combined Reaction Buffer 1 and Reaction Buffer 2.
The Acceptor beads were diluted 50-fold in the combined Reaction Buffers. Five μL of Acceptor Mix was added to each well, the plate was sealed and covered with foil and incubated for 1 hour at room temperature. The Donor Mix (dilution buffer+SureFire Ultra Donor Beads) was prepared by diluting Donor Beads 50-fold in dilution buffer. Five μL of the Donor Mix was added to each well and the plate sealed and covered with foil and incubated for 1-2 hours at room temperature in the dark. The plates were read on a Neo2 plate reader instrument from Biotek using standard AlphaLisa settings.
Compounds were tested in duplicate and the % inhibition at each compound concentration was used to generate two dose response curves. One IC50 was generated using average % inhibition at each compound concentration. […]

Chain of PI3Kα E545K (P42336 whole entry E545K): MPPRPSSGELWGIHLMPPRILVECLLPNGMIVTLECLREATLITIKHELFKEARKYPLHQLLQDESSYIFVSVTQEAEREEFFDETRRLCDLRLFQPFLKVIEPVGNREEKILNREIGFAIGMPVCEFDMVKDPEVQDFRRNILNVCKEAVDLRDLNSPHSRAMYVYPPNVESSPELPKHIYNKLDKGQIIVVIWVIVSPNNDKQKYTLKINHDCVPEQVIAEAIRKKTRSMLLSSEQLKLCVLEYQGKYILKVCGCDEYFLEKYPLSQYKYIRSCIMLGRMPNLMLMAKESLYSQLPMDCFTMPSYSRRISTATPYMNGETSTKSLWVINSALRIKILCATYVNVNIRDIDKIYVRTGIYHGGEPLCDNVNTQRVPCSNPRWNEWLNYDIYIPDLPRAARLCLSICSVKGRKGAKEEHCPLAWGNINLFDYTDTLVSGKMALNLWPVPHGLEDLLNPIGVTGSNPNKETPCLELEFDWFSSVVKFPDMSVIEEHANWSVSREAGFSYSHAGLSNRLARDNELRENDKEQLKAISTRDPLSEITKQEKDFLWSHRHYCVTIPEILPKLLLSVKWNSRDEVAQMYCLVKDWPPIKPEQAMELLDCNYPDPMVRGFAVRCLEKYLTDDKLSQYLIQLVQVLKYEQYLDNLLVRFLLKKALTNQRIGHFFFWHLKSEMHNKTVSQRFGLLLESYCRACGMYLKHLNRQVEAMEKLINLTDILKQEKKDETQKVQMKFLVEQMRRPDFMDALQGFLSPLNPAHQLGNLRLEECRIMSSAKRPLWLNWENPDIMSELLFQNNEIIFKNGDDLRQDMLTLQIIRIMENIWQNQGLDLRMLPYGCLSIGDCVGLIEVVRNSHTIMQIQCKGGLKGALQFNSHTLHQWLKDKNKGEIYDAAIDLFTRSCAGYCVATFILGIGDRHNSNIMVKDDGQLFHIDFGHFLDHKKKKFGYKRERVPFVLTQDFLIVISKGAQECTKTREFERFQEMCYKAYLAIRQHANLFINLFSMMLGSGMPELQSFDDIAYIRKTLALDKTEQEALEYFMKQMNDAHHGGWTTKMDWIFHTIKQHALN
Chain of PI3Kα E545K (P27986 whole entry partner): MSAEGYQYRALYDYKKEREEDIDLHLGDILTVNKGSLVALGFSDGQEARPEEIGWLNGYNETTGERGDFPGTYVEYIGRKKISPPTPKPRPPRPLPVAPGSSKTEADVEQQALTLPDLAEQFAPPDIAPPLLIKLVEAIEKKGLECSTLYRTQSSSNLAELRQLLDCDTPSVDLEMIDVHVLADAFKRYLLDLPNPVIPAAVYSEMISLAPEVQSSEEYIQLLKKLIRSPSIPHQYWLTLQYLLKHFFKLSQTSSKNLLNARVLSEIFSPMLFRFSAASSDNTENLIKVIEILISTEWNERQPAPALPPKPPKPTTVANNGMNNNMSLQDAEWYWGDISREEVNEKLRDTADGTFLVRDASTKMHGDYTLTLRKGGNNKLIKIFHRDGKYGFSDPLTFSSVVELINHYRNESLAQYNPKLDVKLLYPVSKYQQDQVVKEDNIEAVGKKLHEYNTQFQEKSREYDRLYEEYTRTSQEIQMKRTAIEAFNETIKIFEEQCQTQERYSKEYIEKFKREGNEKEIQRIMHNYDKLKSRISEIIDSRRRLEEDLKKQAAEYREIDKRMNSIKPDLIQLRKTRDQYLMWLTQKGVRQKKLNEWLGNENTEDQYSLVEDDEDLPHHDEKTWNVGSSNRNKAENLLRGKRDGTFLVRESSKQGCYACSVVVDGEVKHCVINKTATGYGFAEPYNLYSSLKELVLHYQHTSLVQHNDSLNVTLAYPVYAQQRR

Take `Cc1cc([C@@H](C)Oc2ccc(Cl)nc2C(N)=O)c2oc(-c3ccc4nn([C@H]5C[C@H](O)C5)cc4c3)c(C)c(=O)c2c1` [Example 134C, 6-Chloro-3-[(1R)-1-[2-[2-(3-hydroxycyclobutyl)indazol-5-yl]-3,6-dimethyl-4-oxo-chromen-8-yl]ethoxy]pyridine-2-carboxamide]: the IC50 is less than 500 nM.
For `Cc1cc([C@@H](C)Oc2ccc(Cl)nc2C(N)=O)c2oc(-c3ccc4c(c3)OC(F)(F)O4)c(C)c(=O)c2c1` [Example 60A, 6-Chloro-3-[(1R)-1-[2-(2,2-difluoro-1,3-benzodioxol-5-yl)-3,6-dimethyl-4-oxo-chromen-8-yl]ethoxy]pyridine-2-carboxamide] the value was less than 500 nM.
Compound `Cc1cc([C@@H](C)Oc2ccc(Cl)nc2S(N)(=O)=O)c2oc(-c3cnn(C[C@H](C)O)c3)c(C)c(=O)c2c1` [Example 7B, 6-Chloro-3-[(1R)-1-[2-[1-[(2S)-2-hydroxypropyl]pyrazol-4-yl]-3,6-dimethyl-4-oxo-chromen-8-yl]ethoxy]pyridine-2-sulfonamide] came in with an IC50 of less than 500 nM.
For `Cc1cc([C@@H](C)Oc2ccc(Cl)nc2C(N)=O)c2oc(-c3cnc4c(c3)OCO4)c(C)c(=O)c2c1` [Example 59A, 6-Chloro-3-[(1R)-1-[2-([1,3]dioxolo[4,5-b]pyridin-6-yl)-3,6-dimethyl-4-oxo-chromen-8-yl]ethoxy]pyridine-2-carboxamide] the value was less than 500 nM; for `Cc1cc([C@@H](C)Oc2ccc(Cl)nc2C(N)=O)c2oc(-c3ccc4cc[nH]c(=O)c4c3)c(C)c(=O)c2c1` [Example 120A, 6-Chloro-3-[(1R)-1-[3,6-dimethyl-4-oxo-2-(1-oxo-2H-isoquinolin-7-yl)chromen-8-yl]ethoxy]pyridine-2-carboxamide], less than 500 nM.
Compound `Cc1cc([C@@H](C)Oc2ccc(Cl)nc2S(N)(=O)=O)c2oc(-c3cnn(CC4(C#N)CC4)c3)c(C)c(=O)c2c1` [Example 124C, 6-Chloro-3-[(1R)-1-[2-[1-[(1-cyanocyclopropyl)methyl]pyrazol-4-yl]-3,6-dimethyl-4-oxo-chromen-8-yl]ethoxy]pyridine-2-sulfonamide] yielded an IC50 of less than 500 nM.
`CCc1nc2ccc(-c3oc4c([C@@H](C)Oc5ccc(Cl)nc5C(N)=O)cc(C)cc4c(=O)c3C)cc2o1` [Example 84C, 6-Chloro-3-[(1R)-1-[2-(2-ethyl-1,3-benzoxazol-6-yl)-3,6-dimethyl-4-oxo-chromen-8-yl]ethoxy]pyridine-2-carboxamide]: the 50% inhibitory concentration (IC50) is less than 500 nM.
In the case of `CONS(=O)(=O)c1nc(Cl)ccc1O[C@H](C)c1cc(C)cc2c(=O)c(C)c(-c3cnn(CC(C)(C)O)c3)oc12` [Example 121C, 6-Chloro-3-[(1R)-1-[2-[1-(2-hydroxy-2-methyl-propyl)pyrazol-4-yl]-3,6-dimethyl-4-oxo-chromen-8-yl]ethoxy]-N-methoxy-pyridine-2-sulfonamide] it was less than 500 nM.
In the case of `Cc1cc([C@@H](C)Oc2ccc(Cl)nc2C(=O)NOCC2CC2)c2oc(-c3ccc4nn(C)cc4c3)c(C)c(=O)c2c1` [Example 28A, 6-Chloro-N-(cyclopropylmethoxy)-3-[(1R)-1-[3,6-dimethyl-2-(2-methylindazol-5-yl)-4-oxo-chromen-8-yl]ethoxy]pyridine-2-carboxamide] it was less than 500 nM; in that of `CCc1nc2ccc(-c3oc4c([C@@H](C)Oc5ccc(Cl)nc5C(N)=O)cc(C)cc4c(=O)c3C)cc2s1` [Example 83C, 6-Chloro-3-[(1R)-1-[2-(2-ethyl-1,3-benzothiazol-6-yl)-3,6-dimethyl-4-oxo-chromen-8-yl]ethoxy]pyridine-2-carboxamide], less than 500 nM.
As for `Cc1cc([C@@H](C)Oc2ccc(Cl)nc2C(N)=O)c2oc(-c3ccc4nn(C5COC5)cc4c3)c(C)c(=O)c2c1` [Example 77C, 6-Chloro-3-[(1R)-1-[3,6-dimethyl-2-[2-(oxetan-3-yl)indazol-5-yl]-4-oxo-chromen-8-yl]ethoxy]pyridine-2-carboxamide], the IC50 is less than 500 nM.
In the case of `Cc1cc([C@@H](C)Oc2ccc(Cl)nc2C(N)=O)c2oc(-c3ccc4nn(C)c(C)c4c3)c(C)c(=O)c2c1` [Example 50C, 6-Chloro-3-[(1R)-1-[2-(2,3-dimethylindazol-5-yl)-3,6-dimethyl-4-oxo-chromen-8-yl]ethoxy]pyridine-2-carboxamide] it was less than 500 nM; in that of `Cc1cc([C@@H](C)Oc2ccc(Cl)nc2S(N)(=O)=O)c2oc(-c3cnc4c(c3)OCCO4)c(C)c(=O)c2c1` [Example 6B], less than 500 nM; in that of `Cc1cc([C@@H](C)Oc2ccc(Cl)cc2S(N)(=O)=O)c2oc(-c3cnc4ccoc4c3)c(C)c(=O)c2c1` [Example 100C, 5-Chloro-2-[(1R)-1-(2-furo[3,2-b]pyridin-6-yl-3,6-dimethyl-4-oxo-chromen-8-yl)ethoxy]benzenesulfonamide], less than 500 nM.
In the case of `Cc1cc([C@@H](C)Oc2cccnc2-c2ccccc2F)c2oc(-c3cc[nH]c(=O)c3)c(C)c(=O)c2c1` [Example 29A, 4-[8-[(1R)-1-[[2-(2-Fluorophenyl)-3-pyridyl]oxy]ethyl]-3,6-dimethyl-4-oxo-chromen-2-yl]-1H-pyridin-2-one] it was less than 500 nM.
For `Cc1cc([C@@H](C)Oc2ccc(Cl)nc2S(N)(=O)=O)c2oc(-c3ccccc3)c(C)c(=O)c2c1` [Example 13A, 6-Chloro-3-[(1R)-1-(3,6-dimethyl-4-oxo-2-phenyl-chromen-8-yl)ethoxy]pyridine-2-sulfonamide] the value was less than 500 nM.
